Active and inactive are the calls of the source. No cut-off for these calls is given here.
Tests used:
[1] = Binding affinity to TrkA G667S mutant (unknown origin) assessed as inhibition constant by radiometric assay; parameters: species or system Homo sapiens
BaF3 [2] = assay: Inhibition of TrkA phosphorylation in mouse BaF3 cells expressing CD74 fused TrkA incubated for 6 hrs by Western blot analysis; assay type: cell-based; conditions: dose 3-300 nM
BaF3 [3] = assay: Inhibition of AKT phosphorylation in mouse BaF3 cells expressing TEL fused TrkC G623R mutant incubated for 6 hrs by Western blot analysis; assay type: cell-based; conditions: dose 3-300 nM
BaF3 [4] = assay: Inhibition of PLCgamma1 phosphorylation in mouse BaF3 cells expressing TEL fused TrkC G623R mutant incubated for 6 hrs by Western blot analysis; assay type: cell-based; conditions: dose 3-300 nM
BaF3 [5] = assay: Induction of cell cycle arrest in mouse BaF3 cells expressing CD74 fused TrkA assessed as accumulation of cells in G0/G1 phase incubated for 24 hrs by PI/RNase staining based flow cytometry analysis; assay type: functional
BaF3 [6] = assay: Induction of cell cycle arrest in mouse BaF3 cells expressing TEL fused TrkC G623R mutant assessed as accumulation of cells in G0/G1 phase incubated for 24 hrs by PI /RNase staining based flow cytometry analysis; assay type: functional
Ephrin type-A receptor 8 = biological target: T1, Ephrin type-A receptor 8 (Homo sapiens, UniProt P29322); assay: Inhibition of human EphA8 in presence of ATP by radiometric assay
T1 sequence (P29322 whole entry): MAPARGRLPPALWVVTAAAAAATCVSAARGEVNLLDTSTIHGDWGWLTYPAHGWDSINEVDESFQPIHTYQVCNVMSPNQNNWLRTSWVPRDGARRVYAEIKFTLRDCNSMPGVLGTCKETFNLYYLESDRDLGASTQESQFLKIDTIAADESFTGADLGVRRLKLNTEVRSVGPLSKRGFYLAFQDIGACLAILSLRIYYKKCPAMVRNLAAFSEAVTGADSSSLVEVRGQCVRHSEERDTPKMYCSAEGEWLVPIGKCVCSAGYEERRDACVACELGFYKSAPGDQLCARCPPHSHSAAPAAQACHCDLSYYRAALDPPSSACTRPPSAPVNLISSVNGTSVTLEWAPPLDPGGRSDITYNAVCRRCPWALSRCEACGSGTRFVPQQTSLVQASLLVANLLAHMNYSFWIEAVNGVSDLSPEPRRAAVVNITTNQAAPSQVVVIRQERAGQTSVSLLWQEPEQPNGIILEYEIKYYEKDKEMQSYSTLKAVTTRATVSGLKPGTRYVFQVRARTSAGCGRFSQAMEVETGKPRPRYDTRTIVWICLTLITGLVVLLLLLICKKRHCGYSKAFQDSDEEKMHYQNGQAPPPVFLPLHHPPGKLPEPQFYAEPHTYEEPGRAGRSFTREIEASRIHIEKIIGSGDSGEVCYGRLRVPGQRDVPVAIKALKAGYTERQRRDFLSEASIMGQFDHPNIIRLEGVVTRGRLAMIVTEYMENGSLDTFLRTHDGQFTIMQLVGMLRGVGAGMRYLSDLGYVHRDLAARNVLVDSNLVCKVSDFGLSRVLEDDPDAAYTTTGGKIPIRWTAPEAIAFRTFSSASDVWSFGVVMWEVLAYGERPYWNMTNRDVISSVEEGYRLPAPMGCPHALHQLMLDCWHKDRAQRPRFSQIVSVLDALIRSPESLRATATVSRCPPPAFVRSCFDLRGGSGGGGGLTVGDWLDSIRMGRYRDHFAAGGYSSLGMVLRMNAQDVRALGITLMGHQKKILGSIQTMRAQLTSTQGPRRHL

[7] = Tmax in Sprague-Dawley rat at 10 mg/kg, po measured up to 24 hrs by HPLC method; assay type: ADME, organism-based; conditions: in vivo
[8] = Half life in Sprague-Dawley rat at 10 mg/kg, po measured up to 24 hrs by HPLC method; assay type: ADME, organism-based; conditions: in vivo
[9] = MRT (0 to t) in Sprague-Dawley rat at 5 mg/kg, iv measured up to 24 hrs by HPLC method; assay type: ADME, organism-based; conditions: in vivo
[10] = Tmax in Sprague-Dawley rat at 5 mg/kg, iv measured up to 24 hrs by HPLC method; assay type: ADME, organism-based; conditions: in vivo
[11] = Toxicity in NOD-SCID mouse allografted with larotrectinib-resistant mouse BaF3 cells expressing TEL fused TrkC G623R mutant assessed as body weight loss at 5 to 20 mg/kg, iv measured every 2 or 3 days for 10 days; assay type: organism-based; conditions: in vivo, 240 h, dose 5-20 mg/kg, time 10 day
[12] = Toxicity in NOD-SCID mouse assessed as histological changes in heart at 5 to 20 mg/kg, iv measured after 10 days by H and E staining based microscopic analysis; assay type: organism-based; conditions: in vivo, 240 h, dose 5-20 mg/kg, time 10 day
[13] = Toxicity in NOD-SCID mouse assessed as histological changes in spleen at 5 to 20 mg/kg, iv measured after 10 days by H and E staining based microscopic analysis; assay type: organism-based; conditions: in vivo, 240 h, dose 5-20 mg/kg, time 10 day
BaF3 [14] = assay: In vivo inhibition of Trk signalling in NOD-SCID mouse allografted with mouse BaF3 cells expressing TEL fused TrkC G623R mutant assessed as reduction in p-Akt level at 5 to 20 mg/kg, iv qd measured after 10 days by IHC staining based analysis; assay type: functional, organism-based; conditions: dose 5-20 mg/kg, time 10.0 day
BaF3 [15] = assay: cells; conditions: Mus musculus, BaF3, 72 h
Description: Cytotoxicity against mouse BaF3 cells expressing CD74 fused TrkA assessed as inhibition of cell growth incubated for 3 days by CCK-8 assay

cells = conditions: Homo sapiens, KM12-Luc, 72 h
Description: Cytotoxicity against human KM12-Luc cells expressing TPM3 fused TrkA assessed as inhibition of cell growth incubated for 3 days by CCK-8 assay

Ki [1]: 2 nM
IC50 (Ephrin type-A receptor 8): 101 nM
Tmax [7]: 2 h
half-life [8]: 1.78 h
MRT last at 24 h [9]: 1.07 h
Tmax [10]: 4.8 min
IC50 (BaF3 [15]): 0.5 nM
IC50 (cells): 6 nM
Structure (SMILES): Cc1cc(NC(=O)Nc2cc(C(C)(C)C)nn2-c2ccc(Cl)cc2)ccc1Nc1ncnc2c1OC(C)(C)C(=O)N2
inhibition (BaF3 [2]): Active
inhibition (BaF3 [3]): Active
inhibition (BaF3 [4]): Active
Activity (BaF3 [5]): Active
Activity (BaF3 [6]): Active
Activity [11]: Non-Toxic
Activity [12]: Non-Toxic
Activity [13]: Non-Toxic
inhibition (BaF3 [14]): Active
